Data set [1] deals with Mus musculus. Put plainly: Protection against SEB-induced toxicity in C3H/HeJ mouse assessed as lethality at 1.2 mg/kg, in administered at 5 hrs after SEB challenge followed by 5 mg/kg, ip infusion after 24 to 96 hrs of SEB exposure. Format: functional.
Data set [2] relates to PBMC. The experiment in a line: cells. In kind it is functional. Conditions: Homo sapiens, 48 h.
Data set [3] relates to PBMC. The experiment in a line: cells. Format: functional. Conditions: Homo sapiens, 48 h. This is another data set of the same source.
Data set [4] concerns PBMC. The experiment in a line: cells. Format: functional. Conditions: Homo sapiens, 48 h. The source holds these as a separate data set.
The test system of data set [5] is PBMC. Put plainly: cells. In kind it is functional. The settings on record: Homo sapiens, 48 h. This is another data set of the same source.
Data set [6] relates to PBMC. The experiment in a line: cells. In kind it is functional. The settings on record: Homo sapiens, 48 h. This is another data set of the same source.
Data set [7] has as its system PBMC. Put plainly: cells. The settings on record: Homo sapiens, 48 h. In kind it is functional. This is another data set of the same source.
For data set [8], the system named is PBMC. Put plainly: cells. In kind it is functional. Conditions: Homo sapiens, 48 h. The source holds these as a separate data set.
Data set [9] concerns PBMC. Put plainly: Inhibition of SEB-induced proliferation of human PBMC after 48 hrs by [3H]thymidine incorporation assay. Format: functional, cell-based.
In data set [10] the test system is PBMC. Put plainly: Inhibition of SEB-induced proliferation of human PBMC at 6.9 ug/ml after 48 hrs by [3H]thymidine incorporation assay. In kind it is functional.
Data set [11] concerns PBMC. The experiment in a line: Inhibition of SEB-induced proliferation of human PBMC at 0.69 ug/ml after 48 hrs by [3H]thymidine incorporation assay. In kind it is functional.
The test system of data set [12] is PBMC. Put plainly: Inhibition of SEB-induced proliferation of human PBMC at 6.9 ug/ml after 3 hrs by [3H]thymidine incorporation assay. Format: functional.
In data set [13] the test system is Mus musculus. Put plainly: Protection against SEB-induced toxicity in C3H/HeJ mouse assessed as survival rate at 0.7 mg/kg, in administered at 5 hrs after SEB challenge followed by 1.6 mg/kg, ip infusion after 24 to 96 hrs of SEB exposure. In kind it is functional.
In data set [14] the test system is Mus musculus. The experiment in a line: Protection against SEB-induced toxicity in C3H/HeJ mouse assessed as survival rate at 0.7 mg/kg, in administered at 3 hrs after SEB challenge followed by 1.6 mg/kg, ip infusion after 24 to 96 hrs of SEB exposure. Format: functional.
Data set [15] relates to Mus musculus. The experiment in a line: Protection against SEB-induced toxicity in C3H/HeJ mouse assessed as survival rate at 0.7 mg/kg, in administered at 4 hrs after SEB challenge followed by 1.6 mg/kg, ip infusion after 24 to 96 hrs of SEB exposure. In kind it is functional.
In data set [16] the test system is Mus musculus. The experiment in a line: Protection against SEB-induced toxicity in C3H/HeJ mouse assessed as survival rate at 0.7 mg/kg, in administered at 2 hrs after SEB challenge followed by 1.6 mg/kg, ip infusion after 24 to 96 hrs of SEB exposure. In kind it is functional.
Data set [17] has as its system Mus musculus. Put plainly: Protection against SEB-induced toxicity in C3H/HeJ mouse assessed as attenuation of hypothermic response at 0.7 mg/kg, in administered at 5 hrs after SEB challenge. In kind it is functional, organism-based. On the set-up: dose 0.7 mg/kg.
Data set [18] has as its system Mus musculus. The experiment in a line: Protection against SEB-induced toxicity in C3H/HeJ mouse assessed as attenuation of hypothermic response at 0.7 mg/kg, in administered at 24 hrs after SEB challenge followed by 1.6 mg/kg, ip infusion after 30 to 96 hrs of SEB exposure. Format: functional, organism-based.
Data set [19] has as its system Mus musculus. The experiment in a line: Protection against SEB-induced toxicity in C3H/HeJ mouse assessed as attenuation of hypothermic response at 0.7 mg/kg, in administered at 42 hrs after SEB challenge followed by 1.6 mg/kg, ip infusion after 30 to 96 hrs of SEB exposure. Format: functional.
In data set [20] the test system is Mus musculus. Put plainly: Inhibition of SEB-induced weight loss in C3H/HeJ mouse assessed as weight gain at 0.7 mg/kg, in measured after 150 hrs of SEB challenge. In kind it is functional.
Data set [21] concerns Mus musculus. The experiment in a line: Inhibition of SEB-induced weight loss in C3H/HeJ mouse assessed as weight gain at 0.7 mg/kg, in administered at 24 hrs after SEB challenge followed by 1.6 mg/kg, ip infusion after 30 to 96 hrs of SEB exposure. Format: functional, organism-based.
Data set [22] is described as follows: Drug level in C3H/HeJ mouse blood at 0.7 mg/kg, in after 1 hr. Format: ADME, organism-based. On the set-up: dose 0.7 mg/kg. The settings on record: inhaled or intranasal, read-out: Drug uptake.
Data set [23] is described as follows: Drug level in C3H/HeJ mouse blood at 0.7 mg/kg, in administered at 2 and 5 hrs followed by 1.6 mg/kg, ip infusion at 30, 48, 72 and 96 hrs measured at 97 hrs. Conditions: read-out: Drug uptake. In kind it is ADME, organism-based.
Data set [24] can be described thus: Drug level in C3H/HeJ mouse blood at 0.03 mg/kg, in administered at 2 and 5 hrs followed by 0.08 mg/kg, ip infusion at 30, 48, 72 and 96 hrs measured at 97 hrs. The settings on record: read-out: Drug uptake. Format: ADME, organism-based.
The test system of data set [25] is Mus musculus. The experiment in a line: Antiinflammatory activity in C3H/HeJ mouse assessed as reduction in SEB-induced increase in serum IL-6 level at 0.7 mg/kg, in after 24 hrs. On the set-up: dose 0.7 mg/kg. Format: functional, organism-based.
Data set [26] concerns Mus musculus. Put plainly: Antiinflammatory activity in C3H/HeJ mouse assessed as reduction in SEB-induced increase in serum IL-6 level at 0.7 mg/kg, in after 51 hrs. Format: functional, organism-based. On the set-up: dose 0.7 mg/kg.
For data set [27], the system named is Mus musculus. The experiment in a line: Antiinflammatory activity in C3H/HeJ mouse assessed as reduction in SEB-induced increase in serum IL-6 level at 0.7 mg/kg, in after 75 hrs. Format: functional, organism-based. On the set-up: dose 0.7 mg/kg.
The test system of data set [28] is Mus musculus. Put plainly: Antiinflammatory activity in C3H/HeJ mouse assessed as reduction in SEB-induced increase in serum IL-6 level at 0.7 mg/kg, in after 5 hrs. In kind it is functional, organism-based. On the set-up: dose 0.7 mg/kg.
The subject of data set [29] is PBMC. The experiment in a line: Cytotoxicity against human PBMC at 10 ug/ml after 48 hrs by [3H]thymidine incorporation assay. In kind it is cell-based.
Data set [30] has as its system Mus musculus. Put plainly: Protection against SEB-induced toxicity in C3H/HeJ mouse assessed as appearance of ruffled fur and lethargy at 0.7 mg/kg, in administered at 72 hrs after SEB challenge followed by 1.6 mg/kg, ip infusion after 30 to 96 hrs of SEB exposure. In kind it is functional, organism-based.
Data set [31] relates to Mus musculus. The experiment in a line: Protection against SEB-induced toxicity in C3H/HeJ mouse assessed as survival rate at 1.2 mg/kg, in administered at 2 hrs after SEB challenge followed by 5 mg/kg, ip infusion after 24 to 96 hrs of SEB exposure. Format: functional.
Data set [32] has as its system Mus musculus. The experiment in a line: Protection against SEB-induced toxicity in C3H/HeJ mouse assessed as survival rate at 1.2 mg/kg, in administered at 5 hrs after SEB challenge followed by 5 mg/kg, ip infusion after 24 to 96 hrs of SEB exposure. In kind it is functional.

Activity calls are given as the source filed them. The calls are words filed in the database; no cut-off is given here.

On to `C[C@@H]1C[C@H]2[C@@H]3CCC4=CC(=O)C=C[C@]4(C)[C@@]3(F)[C@@H](O)C[C@]2(C)[C@@]1(O)C(=O)CO` [DEXAMETHASONE], for which, in [1], the Activity came out at 90%.

For `CO[C@H]1C[C@@H]2CC[C@@H](C)[C@@](O)(O2)C(=O)C(=O)N2CCCC[C@H]2C(=O)O[C@H]([C@H](C)C[C@@H]2CC[C@@H](O)[C@H](OC)C2)CC(=O)[C@H](C)/C=C(\C)[C@@H](O)[C@@H](OC)C(=O)[C@H](C)C[C@H](C)/C=C/C=C/C=C/1C` [SIROLIMUS], the inhibition at 6.9 µg/mL is 77% in data set [2]; 97% in [3]; 67% in data set [4]; 100% in data set [5]; 100% in data set [6]; 94% in data set [10]. This molecule returned an inhibition at 6.9 µg/mL in data set [12] of 40%. The values for the inhibition at 0.0069 µg/mL in [7] and in data set [8] were 34% and 36%, respectively. The inhibition result in data set [9] was “Dose-dependent effect”. In data set [11], this molecule displayed an inhibition at 0.69 µg/mL of 56%. Also, the Activity is reported as 100% in [13]; 100% in data set [14]; 100% in data set [15]; 100% in data set [16]; 20% in [19]; “Non-toxic” in [29]. Also, the values for the Activity in data set [31] and in [32] were 100% and 10%, respectively. Besides, the outcome in data set [17], in data set [18] and in data set [30] was Active. Further, in [20], the inhibition in vivo at 0.7 mg/kg stood at 8%. Besides, the inhibition entry in data set [21], in [25], in data set [26] and in [27] was “Active” in each case. For the same molecule, in [22], the concentration at 1 h came to 492 ng/mL. The concentration at 97 h in data set [23] turned out to be 622 ng/mL; in data set [24], 38 ng/mL. For the same molecule, in [28], the inhibition result is “inactive”.

For the origin of these results see ChEMBL document CHEMBL1240404, “Rapamycin protects mice from staphylococcal enterotoxin B-induced toxic shock and blocks cytokine release in vitro and in vivo” (Antimicrob Agents Chemother, 2010).
